# Assay results published in patent US20170217976A1, “6-(AMINO ACID)-MORPHINAN DERIVATIVES IN COMBINATION WITH PERMEATION […] FOR USE AS AN ORALLY, […], TRA[…] NASALLY AD[…]” (C[…], priority 2014, published 2017).
# Read-outs that look alike come from different tables or passages of the source.
# What was measured:
# MOR = target: T1, MOR (Rattus norvegicus, UniProt P33535); test: Opioid receptor binding, MOR, rat brain membranes
# T1 construct: from tissue
# KOR = target: T2, KOR (Cavia porcellus, UniProt P41144); test: Opioid receptor binding, KOR, guinea pig brain membranes
# T2 construct: from tissue
# T2 sequence (P41144 whole entry): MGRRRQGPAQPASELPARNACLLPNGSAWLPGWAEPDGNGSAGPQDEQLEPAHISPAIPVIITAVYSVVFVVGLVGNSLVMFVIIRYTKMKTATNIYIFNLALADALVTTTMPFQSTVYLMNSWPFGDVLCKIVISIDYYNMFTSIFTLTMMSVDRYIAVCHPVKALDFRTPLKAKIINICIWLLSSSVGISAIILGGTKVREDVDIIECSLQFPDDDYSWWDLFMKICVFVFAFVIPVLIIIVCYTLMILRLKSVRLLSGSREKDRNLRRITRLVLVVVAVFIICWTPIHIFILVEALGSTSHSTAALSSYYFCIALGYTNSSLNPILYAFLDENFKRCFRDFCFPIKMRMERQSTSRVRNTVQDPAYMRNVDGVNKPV
# DOR = target: T3, DOR (Rattus norvegicus, UniProt P33533); test: Opioid receptor binding, DOR, rat brain membranes
# T3 construct: from tissue
# T3 sequence (P33533 whole entry): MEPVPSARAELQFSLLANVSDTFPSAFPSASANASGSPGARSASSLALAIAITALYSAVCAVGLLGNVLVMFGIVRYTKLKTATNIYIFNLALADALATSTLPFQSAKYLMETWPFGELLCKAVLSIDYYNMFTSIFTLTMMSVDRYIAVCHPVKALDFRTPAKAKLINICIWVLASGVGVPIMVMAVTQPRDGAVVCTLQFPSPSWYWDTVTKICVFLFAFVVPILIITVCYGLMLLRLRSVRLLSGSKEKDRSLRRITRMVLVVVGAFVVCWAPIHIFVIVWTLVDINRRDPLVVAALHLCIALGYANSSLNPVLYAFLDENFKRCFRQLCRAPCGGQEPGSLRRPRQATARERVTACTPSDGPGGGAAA
# [1] = Binding Ki (nM) MOR, in vitro binding assay, rat brain membranes
# [2] = Binding Ki (nM) KOR, in vitro binding assay, guinea pig brain membranes
# [3] = Binding Ki (nM) DOR, in vitro binding assay, rat brain membranes
# [4] = Binding Ki MOR, Table 1-4, rat brain membranes
# [5] = Binding Ki KOR, Table 1-4, guinea pig brain membranes
# [6] = Binding Ki DOR, Table 1-4, rat brain membranes
# [7] = in vitro binding assay, rat brain membranes, read-out: Binding Ki (nM) MOR
# [8] = in vitro binding assay, guinea pig brain membranes, read-out: Binding Ki (nM) KOR
# [9] = in vitro binding assay, rat brain membranes, read-out: Binding Ki (nM) DOR
# [10] = Binding Ki MOR, Table 2-6, rat brain membranes
# [11] = Binding Ki KOR, Table 2-6, guinea pig brain membranes
# [12] = Binding Ki DOR, Table 2-6, rat brain membranes
# [13] = Binding Ki MOR, Table 1-6, rat brain membranes
# [14] = Binding Ki KOR, Table 1-6, guinea pig brain membranes
# [15] = Binding Ki DOR, Table 1-6, rat brain membranes
# T1 sequence (P33535 whole entry): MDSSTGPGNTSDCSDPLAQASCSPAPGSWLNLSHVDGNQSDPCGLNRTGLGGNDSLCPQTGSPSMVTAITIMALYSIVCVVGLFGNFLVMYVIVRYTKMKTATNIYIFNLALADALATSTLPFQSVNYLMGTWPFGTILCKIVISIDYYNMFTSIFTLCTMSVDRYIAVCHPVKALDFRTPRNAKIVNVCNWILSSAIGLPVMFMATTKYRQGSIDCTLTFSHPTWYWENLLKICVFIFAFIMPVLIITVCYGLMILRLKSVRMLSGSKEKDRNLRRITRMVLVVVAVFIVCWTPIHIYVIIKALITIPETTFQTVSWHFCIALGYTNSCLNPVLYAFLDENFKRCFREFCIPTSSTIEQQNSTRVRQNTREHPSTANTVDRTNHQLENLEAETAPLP
smiles,measurement,setting,value
CO[C@@]12CC[C@H](N[C@@H](C)C(=O)OC(C)(C)C)[C@@H]3Oc4c(O)ccc5c4[C@@]31CCN(C)[C@@H]2C5 [1-t-Bu ester],Ki,MOR; [1],0.29 nM
same,Ki,KOR; [2],11.3 nM
same,Ki,DOR; [3],0.41 nM
CO[C@@]12CC[C@@H](N[C@@H](CCSC)C(=O)O)[C@@H]3Oc4c(O)ccc5c4[C@@]31CCN(C)[C@@H]2C5 [Compound 24],Ki,MOR; [1],3.88 nM
same,Ki,MOR; [4],3.88 nM
same,Ki,KOR; [2],468 nM
same,Ki,KOR; [5],468 nM
same,Ki,DOR; [3],2.4 nM
same,Ki,DOR; [6],2.4 nM
CO[C@@]12CC[C@H](N[C@H](C(=O)OC(C)(C)C)[C@@H](C)O)[C@@H]3Oc4c(O)ccc5c4[C@@]31CCN(C)[C@@H]2C5 [34-t-Bu ester],Ki,MOR; [1],0.2 nM
same,Ki,KOR; [2],9.24 nM
same,Ki,DOR; [3],0.37 nM
CCCCCCCCOC(=O)CN[C@@H]1CC[C@@]2(OC)[C@H]3Cc4ccc(O)c5c4[C@@]2(CCN3C)[C@H]1O5 [HS731-nOc ester],Ki,MOR; [7],2.56 nM
same,Ki,KOR; [8],3.87 nM
same,Ki,DOR; [9],2.71 nM
CO[C@@]12CC[C@H](N[C@H](C(=O)OC(C)(C)C)C(C)C)[C@@H]3Oc4c(O)ccc5c4[C@@]31CCN(C)[C@@H]2C5 [28-t-Bu ester],Ki,MOR; [7],0.25 nM
same,Ki,KOR; [8],10.5 nM
same,Ki,DOR; [9],0.18 nM
CO[C@@]12CC[C@@H](NCC(=O)OCc3ccccc3)[C@@H]3Oc4c(O)ccc5c4[C@@]31CCN(C)[C@@H]2C5 [HS731-benzyl ester],Ki,MOR; [1],0.29 nM
same,Ki,KOR; [8],2.86 nM
same,Ki,DOR; [9],0.74 nM
CO[C@@]12CC[C@H](NCC(=O)OCc3ccccc3)[C@@H]3Oc4c(O)ccc5c4[C@@]31CCN(C)[C@@H]2C5 [HS730-benzyl ester],Ki,MOR; [1],0.19 nM
same,Ki,KOR; [2],0.47 nM
same,Ki,DOR; [3],0.91 nM
CCO[C@@]12CC[C@@H](N[C@@H](Cc3ccccc3)C(=O)OC(C)(C)C)[C@@H]3Oc4c(O)ccc5c4[C@@]31CCN(CC1CC1)[C@@H]2C5 [56-tBu ester],Ki,MOR; [10],2 nM
same,Ki,KOR; [11],17.9 nM
same,Ki,DOR; [12],6.33 nM
CN1CC[C@]23c4c5ccc(O)c4O[C@H]2[C@@H](N[C@@H](Cc2ccccc2)C(=O)O)CC[C@@]3(O)[C@H]1C5 [Compound 11],Ki,MOR; [4],2.3 nM
same,Ki,KOR; [5],344 nM
same,Ki,DOR; [6],19 nM
CC(NC1CCC2(O)C3Cc4ccc(O)c5c4C2(CCN3C)C1O5)C(=O)O (stereo not drawn) [Compound 13],Ki,"MOR; Table 1-4, rat brain membranes, read-out: Binding Ki MOR",3 nM
same,Ki,"KOR; Table 1-4, guinea pig brain membranes, read-out: Binding Ki KOR",710 nM
same,Ki,"DOR; Table 1-4, rat brain membranes, read-out: Binding Ki DOR",170 nM
"CCC(C)C(NC1CCC2(OC)C3Cc4ccc(O)c5c4C2(CCN3C)C1O5)C(=O)OC(C)(C)C (single isomer, unassigned) [43-t-Bu ester]",Ki,MOR; [1],2.87 nM
same,Ki,KOR; [2],208 nM
same,Ki,DOR; [3],2.12 nM
CO[C@@]12CC[C@@H](N[C@@H](C)C(=O)O)[C@@H]3Oc4c(O)ccc5c4[C@@]31CCN(CC1CC1)[C@@H]2C5 [Compound 72],Ki,MOR; [13],2.13 nM
same,Ki,MOR; [10],2.13 nM
same,Ki,KOR; [14],11.5 nM
same,Ki,KOR; [11],11.5 nM
same,Ki,DOR; [15],5.8 nM
same,Ki,DOR; [12],5.8 nM
CO[C@@]12CC[C@H](N[C@@H](CCSC)C(=O)OC(C)(C)C)[C@@H]3Oc4c(O)ccc5c4[C@@]31CCN(C)[C@@H]2C5 [23-t-Bu ester],Ki,MOR; [7],0.32 nM
same,Ki,KOR; [8],10.5 nM
same,Ki,DOR; [9],0.12 nM
CCOC(=O)CNC1CCC2(OCCCc3ccccc3)C3Cc4ccc(O)c5c4C2(CCN3C)C1O5 (stereo not drawn) [7-Et ester],Ki,MOR; [7],0.43 nM
same,Ki,KOR; [8],0.44 nM
same,Ki,DOR; [9],0.25 nM
CC[C@H](N[C@@H]1CC[C@@]2(OC)[C@H]3Cc4ccc(O)c5c4[C@@]2(CCN3CC2CC2)[C@H]1O5)C(=O)O [Compound 79],Ki,MOR; [13],3.39 nM
same,Ki,KOR; [14],19.1 nM
same,Ki,DOR; [15],6.2 nM
CCO[C@@]12CC[C@@H](N[C@@H](Cc3ccccc3)C(=O)O)[C@@H]3Oc4c(O)ccc5c4[C@@]31CCN(CC1CC1)[C@@H]2C5 [Compound 56],Ki,MOR; [10],1.04 nM
same,Ki,KOR; [11],11.6 nM
same,Ki,DOR; [12],1.76 nM
CO[C@@]12CC[C@H](N[C@@H](CC(C)C)C(=O)O)[C@@H]3Oc4c(O)ccc5c4[C@@]31CCN(CC1CC1)[C@@H]2C5 [Compound 76],Ki,MOR; [10],0.72 nM
same,Ki,KOR; [11],7.87 nM
same,Ki,DOR; [12],2.2 nM
CO[C@@]12CC[C@@H](N[C@H](C(=O)OC(C)(C)C)[C@@H](C)O)[C@@H]3Oc4c(O)ccc5c4[C@@]31CCN(C)[C@@H]2C5 [35-t-Bu ester],Ki,MOR; [1],0.51 nM
same,Ki,KOR; [2],102 nM
same,Ki,DOR; [3],0.65 nM
"COC12CCC(NC(C(=O)O)C(C)C)C3Oc4c(O)ccc5c4C31CCN(C)C2C5 (single isomer, unassigned) [Compound 28]",Ki,MOR; [1],3.16 nM
same,Ki,MOR; [4],3.16 nM
same,Ki,KOR; [2],325 nM
same,Ki,KOR; [5],325 nM
same,Ki,DOR; [3],3.91 nM
same,Ki,DOR; [6],3.91 nM
